From PMC11209700, “In Silico Drug Repurposing Uncovered the Antiviral Potential of the Antiparasitic Drug Oxibendazole Against the Chikungunya Virus” (ACS Omega, 2024)
Starred links: 1 amine or outer side, 2 acyl side, 3 side chain; linkers in the order of their positions; H or OH if unused. Positions of bridges follow the written chain, without caps; N, C: chain ends. Non-standard residues stand in square brackets, D forms with d. Residues, ends and D or L forms follow the SMILES beside them. *: point of attachment. hTyr(3S-OH,4S-OH,3'-OSO3H) = N[C@H](C(=O)O)[C@H](O)[C@@H](O)c1ccc(O)c(OS(=O)(=O)O)c1; Orn(4R-OH,5R-OH) = O=C([C@H](C[C@@H](O)[C@@H](O)N[*:3])N[*:1])[*:2]; Pro(3S-OH,4S-Me) = C[C@H]1CN[C@H](C(=O)O)[C@H]1O; X1 = CCCCCOc1ccc(-c2cc(-c3ccc(C(=O)*)cc3)no2)cc1; Gln(3R-OH) = NC(=O)C[C@@H](O)[C@H](N)C(=O)O; Hyp = O=C(O)[C@@H]1C[C@@H](O)CN1

Key:
[1] = tested on: CHIKV 181-25 strain; assay: Antiviral screening against CHIKV 181-25 replication in Vero cells (plaque assay); type: cell-based, Chikungunya virus; conditions: inhibition rate of CHIKV replication at 50 μM, % relative to control, 24 hpi; for inhibition at 50 µM: Chikungunya virus; for CHIKV 181-25 inhibition (%): 50 µM
Method: DMSO (0.5%) was used as vehicle control, while CQ (50 μM) was used as a positive control due to its in vitro antiviral activity against CHIKV.[57]
Finally, the overlay medium was removed, and cells were fixed and stained with 10% formaldehyde and 0.2% crystal violet. Plaques were counted, and virus titers were determined as PFU/mL. Inhibition rates were determined by comparing the number of PFU of infected and treated cells and infected and untreated cells (100% infectivity).

[2] = tested on: CHIKV; conditions: read-out: EC50 against CHIKV; cited from earlier work
[3] = tested on: CHIKV BRA/RJ/18; assay: Antiviral evaluation against CHIKV BRA/RJ/18 replication in Vero cells (plaque assay); type: cell-based, Chikungunya virus; conditions: for EC50 / inhibition at 50 µM: Chikungunya virus, Vero; for EC50: 24 h, read-out: CHIKV BRA/RJ/18 EC50; for CHIKV BRA/RJ/18 EC50: Vero cells, MOI 1, 24 h; for inhibition at 50 µM: read-out: CHIKV BRA/RJ/18 inhibition (%); for CHIKV BRA/RJ/18 SI (selectivity index): ratio between CC50 and EC50 values
[4] = Cytotoxicity by MTT assay in Vero cells; conditions: African green monkey
[5] = tested on: CHIKV; conditions: cited from earlier work
[6] = tested on: CHIKV BRA/RJ/18; assay: Entry assay; conditions: Chikungunya virus, read-out: inhibition rate in virus entry assay
[7] = single oral dose of 400 mg; cited from earlier work
[8] = tested on: human herpesvirus 8; conditions: read-out: EC50 against human herpesvirus 8; cited from earlier work
[9] = tested on: CHIKV BRA/RJ/18; assay: Virus release assay; conditions: 50 μM, 6 hpi
[10] = tested on: rats; conditions: doses up to 10 g/kg; cited from earlier work
[11] = tested on: CHIKV BRA/RJ/18; assay: Virucidal assay; type: cell-based, Chikungunya virus; conditions: 50 μM, 2 × 10^5 PFU treated 2 h at 37 °C
[12] = tested on: Zika virus; conditions: read-out: EC50 against Zika virus; cited from earlier work
[13] = tested on: mice; conditions: doses up to 10 g/kg; cited from earlier work
[14] = tested on: CHIKV BRA/RJ/18; assay: Attachment assay; conditions: Chikungunya virus, read-out: inhibition rate in attachment assay
[15] = tested on: CHIKV BRA/RJ/18; assay: Time-of-drug addition assay; type: cell-based; conditions: Chikungunya virus

Structure (SMILES): CCCCCOC(=O)Nc1nc(=O)n([C@@H]2O[C@H](C)[C@@H](O)[C@H]2O)cc1F [CPB, capecitabine]
- inhibition at 50 µM [1]: 0%
- CHIKV 181-25 inhibition (%) [1]: did not present antiviral activity
- CHIKV 181-25 inhibition (%) ([1]; listed as CPD): did not inhibit CHIKV replication

Structure (SMILES): CCCCCCCCCCC[C@@H](C[C@@H]1OC(=O)[C@H]1CCCCCC)OC(=O)[C@H](CC(C)C)NC=O [orlistat]
- EC50 [2]: 0.82 µM

Structure (SMILES): CCCCCOc1ccc(-c2cc(-c3ccc(C(=O)N[C@H]4C[C@@H](O)[C@@H](O)NC(=O)[C@@H]5[C@@H](O)[C@@H](C)CN5C(=O)[C@H]([C@H](O)CC(N)=O)NC(=O)[C@H]([C@H](O)[C@@H](O)c5ccc(O)c(OS(=O)(=O)O)c5)NC(=O)[C@@H]5C[C@@H](O)CN5C(=O)[C@H]([C@@H](C)O)NC4=O)cc3)no2)cc1 [micafungin] (X1-[Orn(4R-OH,5R-OH)]T[Hyp][hTyr(3S-OH,4S-OH,3'-OSO3H)][Gln(3R-OH)][Pro(3S-OH,4S-Me)]; lactam 1-C)
- EC50 [2]: 20.6 µM

Structure (SMILES): CC(=O)Oc1ccccc1C(=O)Nc1ncc([N+](=O)[O-])s1 [nitazoxanide]
- EC50 [2]: 2.96 µM

Structure (SMILES): COC(=O)Nc1nc2ccc(Sc3ccccc3)cc2[nH]1 [FBZ, fenbendazole]
- EC50 [3]: > 50 µM
- CHIKV BRA/RJ/18 EC50 [3]: none exhibited anti-CHIKV activity
- CC50 at 72 h [4]: > 500 µM

Structure (SMILES): CCCc1nc2c(C)cc(-c3nc4ccccc4n3C)cc2n1Cc1ccc(-c2ccccc2C(=O)O)cc1 [telmisartan]
- EC50 [2]: 15.3 µM
- effect on CHIKV infection in mice [5]: ameliorate CHIKV infection in mice

Structure (SMILES): CCCSc1ccc2nc(NC(=O)OC)[nH]c2c1 [ABZ, albendazole]
- EC50 [3]: > 50 µM
- CHIKV BRA/RJ/18 EC50 [3]: none exhibited anti-CHIKV activity
- CC50 at 72 h [4]: > 500 µM

Structure (SMILES): CCCOc1ccc2nc(NC(=O)OC)[nH]c2c1 [OBZ, oxibendazole]
- inhibition at 50 µM [1]: 66.4 ± 2.5%
- inhibition at 50 µM [6]: 33.8%
- EC50 [3]: 11.4 ± 3.2 µM
- inhibition at 50 µM [3]: 61.8 ± 2.7%
- CHIKV BRA/RJ/18 SI (selectivity index) [3]: >44.0
- side effects in clinical trials [7]: low frequency of side effects
- EC50 [8]: 1.5 µM
- intracellular/extracellular ratio of virus titers [9]: 3.78
- lethality (LD50 not determinable) [10]: no deaths were reported
- virucidal effect [11]: no virucidal effects were observed
- EC50 [12]: 0.7 µM
- lethality (LD50 not determinable) [13]: no deaths were reported
- CC50 at 72 h [4]: > 500 µM
- inhibition at 50 µM [14]: 13.1%
- inhibition at 50 µM ([15]; read-out: inhibition rate in time-of-addition assay, 50 μM, added after 4 hpi until 10 hpi): ~40%
- inhibition at 50 µM ([15]; read-out: inhibition rate in time-of-addition assay, 50 μM, added until 4 hpi): ~55%

Structure (SMILES): CC(C)OC(=O)[C@H](C)N[P@](=O)(OC[C@H]1O[C@@H](n2ccc(=O)[nH]c2=O)[C@](C)(F)[C@@H]1O)Oc1ccccc1 [sofosbuvir]
- EC50 [2]: 2.7 µM
- effect on CHIKV infection in mice [5]: ameliorate CHIKV infection in mice

Structure (SMILES): Cc1ccc(C(=O)Nc2ccc(S(=O)(=O)O)c3cc(S(=O)(=O)O)cc(S(=O)(=O)O)c23)cc1NC(=O)c1cccc(NC(=O)Nc2cccc(C(=O)Nc3cc(C(=O)Nc4ccc(S(=O)(=O)O)c5cc(S(=O)(=O)O)cc(S(=O)(=O)O)c45)ccc3C)c2)c1 [suramin]
- EC50 [2]: 21.5 µM
- effect on CHIKV infection in mice [5]: ameliorate CHIKV infection in mice

Structure (SMILES): COC(=O)Nc1nc2ccc(C(=O)c3ccccc3)cc2[nH]1 [MBZ, mebendazole]
- EC50 [3]: > 50 µM
- CHIKV BRA/RJ/18 EC50 [3]: none exhibited anti-CHIKV activity
- CC50 at 72 h [4]: > 500 µM

Structure (SMILES): CCN(CC)CCCC(C)Nc1ccnc2cc(Cl)ccc12 (stereo not drawn) [CQ, chloroquine]
- inhibition at 50 µM [1]: 98.2 ± 0.2%
- EC50 [3]: 47.5 ± 10.2 µM
- inhibition at 50 µM [3]: 48.5 ± 11.7%
- CHIKV BRA/RJ/18 SI (selectivity index) [3]: 9.9
- CC50 at 72 h [4]: 469 ± 84.4 µM
